Measurements from US20070092474A1, “Carnitine salt, preliposome which contains it and dermocosmetic formula for topical use based upon said carnitine salt” (priority 2003, published 2007).

How the values were obtained:
[1] = test system: skin blemishes deriving from cellulite and from localised adiposity; assay: Overall evaluation of the efficiency of the cosmetic product adjuvating the reduction of skin blemishes; assay type: in vivo, female volunteers; settings: versus just carnitine (II) and just hydroxy citric acid (III) in the same tests
Experimental: (§1) A dermatological test was carried out on 25 female volunteers between 18 and 65 years of age, with the backing of the Department of Physiological and Pharmacological Sciences of the university of Pavia. The investigation aimed to check the modification of three anatomical-physiological parameters, qualifying the unaesthetic-functional aspect connected to the manifestation of so-called cellulite and subcutaneous hypertriglyceridaemia: measurement of the skin folds, measurement of the circumference of the thighs, thermographic skin measurement.
(§2) The test stretched out over 60 days with the continual daily application of the aforementioned preparation of cosmetic gel. The measurements were carried out after 15, 30 and 60 days. The detail of the test protocol and of the results obtained is shown hereafter.
Evaluation of the Efficiency of a Cosmetic Product Adjuvating the Reduction of the Skin Blemishes Deriving from Cellulite and from Localised Adiposity.
The present experimentation allows it to be evaluated whether the cosmetic product being studied carries out an action adjuvating the reduction of the skin blemishes deriving from cellulite and from localised adiposity. […]

[2] = test system: skin blemishes caused by cellulite and localised adiposity; assay: Thigh circumference measured with a measuring tape, dermatological test of the cosmetic gel; assay type: in vivo, female volunteers; settings: MEDIA of 25 volunteers
Experimental: as §1, §2
25 female volunteers aged between 18 and 65, with the presence of skin blemishes caused by cellulite and localised adiposity, were selected according to the following criteria: good general state of health, absence of skin pathologies, not being under medication, commitment not to vary the normal daily routine, no medical history of atopy.
The samples were tested by uniformly applying them on “Glute SX Glute DJ (Femoris Posto SX Femoris Posto DX Femoris Ant. SX Femoris Ant. DX” every day at least once per day for the entire duration of the test.
At the time of inclusion in the study and during the subsequent checks after 15 days (T15), after 30 days (T30) and after 60 days (T60) of treatment the following instrumental measurements were taken: • plicometry (through a plicometer) • thigh circumference (through a measuring tape broken into millimetres) • contact thermography (through liquid crystal thermographic plates).

[3] = T0 at inclusion, before treatment
[4] = after 15 days of daily gel application
[5] = after 30 days of daily gel application
[6] = after 60 days of daily gel application

Substance: carnitine hydroxycitrate [carnitine hydroxy citrate]
- Comparison of the salt with the two reactants by themselves [1]: provides the best results
- LEFT THIGH CIRCUMFERENCE 1/3 T0, MEDIA [2, 3]: 53.1
- LEFT THIGH CIRCUMFERENCE 2/3 T0, MEDIA [2, 3]: 50.2
- LEFT THIGH CIRCUMFERENCE 3/3 T0, MEDIA [2, 3]: 40.3
- RIGHT THIGH CIRCUMFERENCE 1/3 T0, MEDIA [2, 3]: 53.1
- RIGHT THIGH CIRCUMFERENCE 2/3 T0, MEDIA [2, 3]: 50.3
- RIGHT THIGH CIRCUMFERENCE 3/3 T0, MEDIA [2, 3]: 40.4
- LEFT THIGH CIRCUMFERENCE 1/3 T15, MEDIA [2, 4]: 52.7
- LEFT THIGH CIRCUMFERENCE 2/3 T15, MEDIA [2, 4]: 49.7
- LEFT THIGH CIRCUMFERENCE 3/3 T15, MEDIA [2, 4]: 39.8
- RIGHT THIGH CIRCUMFERENCE 1/3 T15, MEDIA [2, 4]: 53.3
- RIGHT THIGH CIRCUMFERENCE 2/3 T15, MEDIA [2, 4]: 49.2
- RIGHT THIGH CIRCUMFERENCE 3/3 T15, MEDIA [2, 4]: 39.5
- LEFT THIGH CIRCUMFERENCE 1/3 T30, MEDIA [2, 5]: 51.6
- LEFT THIGH CIRCUMFERENCE 2/3 T30, MEDIA [2, 5]: 48.8
- LEFT THIGH CIRCUMFERENCE 3/3 T30, MEDIA [2, 5]: 38.7
- RIGHT THIGH CIRCUMFERENCE 1/3 T30, MEDIA [2, 5]: 51.8
- RIGHT THIGH CIRCUMFERENCE 2/3 T30, MEDIA [2, 5]: 48.8
- RIGHT THIGH CIRCUMFERENCE 3/3 T30, MEDIA [2, 5]: 38.8
- LEFT THIGH CIRCUMFERENCE 1/3 T60, MEDIA [2, 6]: 50.7
- LEFT THIGH CIRCUMFERENCE 2/3 T60, MEDIA [2, 6]: 47.9
- LEFT THIGH CIRCUMFERENCE 3/3 T60, MEDIA [2, 6]: 38.1
- RIGHT THIGH CIRCUMFERENCE 1/3 T60, MEDIA [2, 6]: 50.7
- RIGHT THIGH CIRCUMFERENCE 2/3 T60, MEDIA [2, 6]: 47.7
